Experimental data as given in patent US20120178758A1, “STYRYL-TRIAZINE DERIVATIVES AND THEIR THERAPEUTICAL APPLICATIONS” (CALIFORNIA CAPITAL EQUITY, LLC, priority 2009, published 2012).

Columns and labels:
Assay type in all cases: biochemical
c-Src kinase = molecular target: T1, c-Src kinase (Homo sapiens, UniProt P12931); experiment: c-Src kinase assay (KinaseProfiler / Kinase Hotspot); settings: compound at 1 μM; read-out: % Inhibition @1 μM cSrc
T1 construct: purchased Millipore (KinaseProfiler Service) / Reaction Biology Corp. (Kinase Hotspot)
T1 sequence (P12931 whole entry): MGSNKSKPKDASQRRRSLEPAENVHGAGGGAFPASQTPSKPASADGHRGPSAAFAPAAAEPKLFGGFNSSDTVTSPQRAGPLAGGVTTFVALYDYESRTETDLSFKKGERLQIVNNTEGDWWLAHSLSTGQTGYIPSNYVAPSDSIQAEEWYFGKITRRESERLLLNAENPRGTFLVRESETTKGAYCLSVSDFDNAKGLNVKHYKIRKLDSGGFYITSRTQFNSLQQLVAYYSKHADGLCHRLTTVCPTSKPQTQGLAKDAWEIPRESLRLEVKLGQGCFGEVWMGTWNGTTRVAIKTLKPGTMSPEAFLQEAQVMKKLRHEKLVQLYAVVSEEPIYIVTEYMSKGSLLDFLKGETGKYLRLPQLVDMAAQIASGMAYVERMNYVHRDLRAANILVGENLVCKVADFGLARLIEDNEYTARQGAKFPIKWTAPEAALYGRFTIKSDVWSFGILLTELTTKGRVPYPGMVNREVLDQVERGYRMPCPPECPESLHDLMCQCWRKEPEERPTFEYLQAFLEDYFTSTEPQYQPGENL
Method: (§1) This example illustrated c-Src kinase, Aurora-A kinase, Flt3 kinase, Ret kinase and TrkA Kinase Assays of selected Compounds from this invention (referred to Daniele Fancelli et al, J. Med. Chem., 2006, 49 (24), pp 7247-7251). The KinaseProfiler™ Service Assay Protocols (Millipore) were used to test the kinase inhibiting activity of novel compounds from this invention. To do this, the buffer composition was as: 20 mM MOPS, 1 mM EDTA, 0.01% Brij-35, 5% Glycerol, 0.1% […], 1 mg/mL BSA. Test compounds were initially dissolved in DMSO at the desired concentration, then serially diluted to the kinase assay buffer. In a final reaction volume of 25 μL, Aurora-A(h) (5-10 mU) is incubated with 8 mM MOPS pH 7.0, 0.2 mM EDTA, 200 μM LRRASLG (Kemptide), 10 mM MgAcetate and [γ^33P-ATP]. The reaction was initiated by the addition of the MgATP mix. After incubation for 40 minute at room temperature, the reaction was stopped by addition of 5 μL of a 3% phosphoric acid solution. 10 μL of the reaction was then spotted onto a P30 filtermat and washed three times for 5 minutes in 50 mM phosphoric acid and once in methanol prior to drying and scintillation counting. Wells containing substrate but no kinase and wells containing a phosphopeptide control were used to set 0% and 100% phosphorylation value, repectively.
(§2) Also Kinase Hotspot™ kinase assay was used to test the compounds for IC50 or % inhibitions (Reaction Biology Corp.). Inhibitor IC50 values were determined by titration of compound at the optimal kinase concentration (Kinase EC50).

Aurora-A(h) = molecular target: T2, Aurora-A(h) (Homo sapiens, UniProt O14965); experiment: Aurora-A kinase assay (KinaseProfiler / Kinase Hotspot); settings: compound at 1 μM; read-out: % Inhibition @1 μM Auroro-A
T2 construct: purchased Millipore (KinaseProfiler Service) / Reaction Biology Corp. (Kinase Hotspot)
T2 sequence (O14965 1-403): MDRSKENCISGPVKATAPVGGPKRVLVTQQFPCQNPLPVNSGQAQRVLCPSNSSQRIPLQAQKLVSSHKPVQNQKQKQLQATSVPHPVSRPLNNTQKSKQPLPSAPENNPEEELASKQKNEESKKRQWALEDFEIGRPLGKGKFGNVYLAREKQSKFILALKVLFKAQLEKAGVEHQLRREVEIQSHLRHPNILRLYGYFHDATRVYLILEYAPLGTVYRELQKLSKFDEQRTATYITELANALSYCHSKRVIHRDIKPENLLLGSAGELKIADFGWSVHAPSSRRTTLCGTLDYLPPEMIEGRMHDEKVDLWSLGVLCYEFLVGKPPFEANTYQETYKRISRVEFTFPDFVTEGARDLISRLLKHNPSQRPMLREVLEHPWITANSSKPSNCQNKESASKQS
Method: as §1, §2

Flt3 kinase = molecular target: T3, Flt3 kinase (Homo sapiens, UniProt P36888); experiment: Flt3 kinase assay (KinaseProfiler / Kinase Hotspot); settings: compound at 1 μM
T3 construct: purchased Millipore (KinaseProfiler Service) / Reaction Biology Corp. (Kinase Hotspot)
T3 sequence (P36888 27-993): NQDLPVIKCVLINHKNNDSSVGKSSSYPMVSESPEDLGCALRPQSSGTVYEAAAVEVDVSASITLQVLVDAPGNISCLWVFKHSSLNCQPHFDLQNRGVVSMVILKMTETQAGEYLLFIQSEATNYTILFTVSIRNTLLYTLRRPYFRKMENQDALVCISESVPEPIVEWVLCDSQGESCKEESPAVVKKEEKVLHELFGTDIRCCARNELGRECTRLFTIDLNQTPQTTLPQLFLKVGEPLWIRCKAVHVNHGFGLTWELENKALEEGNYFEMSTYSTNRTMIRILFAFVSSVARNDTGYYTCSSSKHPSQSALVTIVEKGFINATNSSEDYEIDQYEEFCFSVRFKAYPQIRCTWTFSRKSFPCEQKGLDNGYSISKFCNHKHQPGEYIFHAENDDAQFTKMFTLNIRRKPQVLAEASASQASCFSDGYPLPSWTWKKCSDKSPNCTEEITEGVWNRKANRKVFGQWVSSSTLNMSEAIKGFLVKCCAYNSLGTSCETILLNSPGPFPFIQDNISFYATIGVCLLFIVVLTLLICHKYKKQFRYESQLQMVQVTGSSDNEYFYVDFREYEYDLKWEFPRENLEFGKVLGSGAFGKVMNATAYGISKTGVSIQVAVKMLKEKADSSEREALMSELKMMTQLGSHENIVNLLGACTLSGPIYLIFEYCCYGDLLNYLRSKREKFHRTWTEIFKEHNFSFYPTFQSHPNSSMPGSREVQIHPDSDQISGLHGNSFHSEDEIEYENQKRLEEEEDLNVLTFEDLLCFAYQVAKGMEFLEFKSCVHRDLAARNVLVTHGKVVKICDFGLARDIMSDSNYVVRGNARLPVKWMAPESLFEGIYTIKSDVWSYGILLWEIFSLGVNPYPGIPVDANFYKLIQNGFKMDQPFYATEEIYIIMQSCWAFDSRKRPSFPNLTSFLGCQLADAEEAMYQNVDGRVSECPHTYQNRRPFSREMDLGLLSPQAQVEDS
Method: as §1, §2

Ret kinase = molecular target: T4, Ret kinase (Homo sapiens, UniProt P07949); experiment: Ret kinase assay (KinaseProfiler / Kinase Hotspot); settings: compound at 1 μM
T4 construct: purchased Millipore (KinaseProfiler Service) / Reaction Biology Corp. (Kinase Hotspot)
T4 sequence (P07949 29-1114): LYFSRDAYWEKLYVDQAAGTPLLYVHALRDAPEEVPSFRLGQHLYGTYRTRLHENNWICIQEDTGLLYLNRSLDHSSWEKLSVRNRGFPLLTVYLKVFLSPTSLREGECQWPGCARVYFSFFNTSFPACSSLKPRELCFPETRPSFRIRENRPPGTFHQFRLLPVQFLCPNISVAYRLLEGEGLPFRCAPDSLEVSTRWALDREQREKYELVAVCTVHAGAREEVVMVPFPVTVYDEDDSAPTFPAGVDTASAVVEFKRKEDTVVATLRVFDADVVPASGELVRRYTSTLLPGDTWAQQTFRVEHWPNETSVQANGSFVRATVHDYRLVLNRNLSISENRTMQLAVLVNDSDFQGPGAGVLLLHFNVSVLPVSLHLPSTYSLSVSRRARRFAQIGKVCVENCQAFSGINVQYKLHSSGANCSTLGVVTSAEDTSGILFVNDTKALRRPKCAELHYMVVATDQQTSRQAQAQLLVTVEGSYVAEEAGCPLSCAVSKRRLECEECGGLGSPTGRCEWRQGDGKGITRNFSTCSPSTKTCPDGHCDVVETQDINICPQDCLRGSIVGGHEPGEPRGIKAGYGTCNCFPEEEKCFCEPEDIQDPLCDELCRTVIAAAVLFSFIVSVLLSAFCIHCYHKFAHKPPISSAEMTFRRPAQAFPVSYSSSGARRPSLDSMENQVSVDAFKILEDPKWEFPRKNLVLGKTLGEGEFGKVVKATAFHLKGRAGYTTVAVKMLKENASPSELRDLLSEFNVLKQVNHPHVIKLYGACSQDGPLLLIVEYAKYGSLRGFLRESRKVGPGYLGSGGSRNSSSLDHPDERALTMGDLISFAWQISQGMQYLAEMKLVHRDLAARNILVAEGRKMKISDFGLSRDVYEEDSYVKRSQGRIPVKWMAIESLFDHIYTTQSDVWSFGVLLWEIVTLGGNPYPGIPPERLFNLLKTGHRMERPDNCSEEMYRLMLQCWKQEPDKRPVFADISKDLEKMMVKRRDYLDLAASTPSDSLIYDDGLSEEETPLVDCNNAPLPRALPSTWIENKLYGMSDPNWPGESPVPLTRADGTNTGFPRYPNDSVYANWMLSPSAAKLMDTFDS
Method: as §1, §2

TrkA Kinase = molecular target: T5, TrkA Kinase (Homo sapiens, UniProt P04629); experiment: TrkA kinase assay (KinaseProfiler / Kinase Hotspot); settings: compound at 1 μM
T5 construct: purchased Millipore (KinaseProfiler Service) / Reaction Biology Corp. (Kinase Hotspot)
T5 sequence (P04629 33-796): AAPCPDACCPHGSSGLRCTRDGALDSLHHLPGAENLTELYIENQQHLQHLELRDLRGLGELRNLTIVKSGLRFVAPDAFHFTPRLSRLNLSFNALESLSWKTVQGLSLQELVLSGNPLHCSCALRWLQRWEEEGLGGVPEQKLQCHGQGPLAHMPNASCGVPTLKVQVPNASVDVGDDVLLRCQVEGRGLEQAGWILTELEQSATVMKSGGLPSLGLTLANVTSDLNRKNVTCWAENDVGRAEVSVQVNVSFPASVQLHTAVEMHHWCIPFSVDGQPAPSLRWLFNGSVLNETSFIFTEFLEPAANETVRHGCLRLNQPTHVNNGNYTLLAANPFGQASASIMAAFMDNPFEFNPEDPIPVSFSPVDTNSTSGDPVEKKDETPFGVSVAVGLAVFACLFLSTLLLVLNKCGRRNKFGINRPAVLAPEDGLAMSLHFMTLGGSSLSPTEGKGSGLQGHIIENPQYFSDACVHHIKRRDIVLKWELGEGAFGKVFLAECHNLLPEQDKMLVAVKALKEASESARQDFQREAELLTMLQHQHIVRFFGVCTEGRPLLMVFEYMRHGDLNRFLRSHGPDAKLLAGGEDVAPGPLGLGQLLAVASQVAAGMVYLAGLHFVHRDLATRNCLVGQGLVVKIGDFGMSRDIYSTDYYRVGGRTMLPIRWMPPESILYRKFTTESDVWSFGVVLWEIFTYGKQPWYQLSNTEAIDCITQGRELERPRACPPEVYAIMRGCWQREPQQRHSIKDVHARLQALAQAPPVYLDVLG
Method: as §1, §2

SMILES	inhibition at 1 µM (c-Src kinase) [%]	inhibition at 1 µM (Aurora-A(h)) [%]	inhibition at 1 µM (Flt3 kinase) [%]	inhibition at 1 µM (Ret kinase) [%]	inhibition at 1 µM (TrkA Kinase) [%]
Cc1cc(Nc2nc(/C=C/c3ccccc3Cl)nc(N3CCN(C)CC3)n2)n[nH]1 [Example 10]	50 to 90	50 to 90	> 90	< 50	> 90
Cc1ccc(/C=C/c2nc(Nc3cc(C)[nH]n3)nc(N3CCN(C)CC3)n2)cc1 [Example 9]	< 50	50 to 90	50 to 90	50 to 90	> 90
Cc1cc(Nc2nc(/C=C\c3ccccc3)nc(N3CCN(C)CC3)n2)n[nH]1 [Example 4]	< 50	50 to 90	50 to 90	< 50	50 to 90
Cc1cc(Nc2nc(C#Cc3ccccc3)nc(N3CCN(C)CC3)n2)n[nH]1 [Example 3]	< 50	50 to 90	50 to 90	50 to 90	> 90
Cc1cc(Nc2nc(/C=C/c3ccc(Cl)cc3)nc(N3CCN(C)CC3)n2)n[nH]1 [Example 8]	50 to 90	50 to 90	> 90	50 to 90	> 90
Cc1cc(Nc2nc(/C=C/c3ccccc3)nc(N3CCN(C)CC3)n2)n[nH]1 [Example 7]	50 to 90	> 90	> 90	50 to 90	> 90

Continued, values first:

inhibition at 1 µM (c-Src kinase) [%]	inhibition at 1 µM (Aurora-A(h)) [%]	inhibition at 1 µM (Flt3 kinase) [%]	inhibition at 1 µM (Ret kinase) [%]	inhibition at 1 µM (TrkA Kinase) [%]	SMILES
50 to 90	50 to 90	> 90	50 to 90	> 90	CN1CCN(c2nc(/C=C/c3ccccc3)nc(Nc3cc(-c4ccccc4)[nH]n3)n2)CC1 [Example 18]
50 to 90	50 to 90	> 90	< 50	> 90	Cc1cnc(Nc2nc(/C=C/c3ccccc3)nc(N3CCN(C)CC3)n2)s1 [Example 17]
> 90	50 to 90	50 to 90	50 to 90	> 90	C/C=C/c1cc(Nc2nc(/C=C/c3ccccc3)nc(N3CCN(C)CC3)n2)n[nH]1 [Example 19]
50 to 90	50 to 90	> 90	< 50	> 90	Cc1cc(Nc2nc(/C=C/c3cccc(Cl)c3)nc(N3CCN(C)CC3)n2)n[nH]1 [Example 11]
50 to 90	50 to 90	> 90	< 50	50 to 90	Cc1cc(Nc2nc(/C=C/c3nccs3)nc(N3CCN(C)CC3)n2)n[nH]1 [Example 12]
